Results as given in patent EP3811940B1, “SUBSTITUTED 4,5'-BITHIAZOLES AS INHIBITORS OF THE HUMAN DNA TOPOISOMERASE II” (Kemijski Institut, priority 2019, dated 2021).
Like-named read-outs stand apart in the source and are kept apart here.

Legend:
[1] = system: HepG2 cells; test: MTS cytotoxicity assay, HepG2; type: cell-based, human; settings: Homo sapiens, interval in brackets
Description: (§1) We determined the cytotoxicity of the tested compounds on human breast cancer MCF-7 and human hepatocellular carcinoma HepG2 cancer cell lines using MTS assay. Both selected human cancer cell lines are representative and well-established systems for cell-based evaluation of potential anticancer compounds. Etoposide was again used as a positive control (PC).
(§2) In the first step we performed the initial screening of compounds 1-14 at one concentration. […] Exponentially growing cells were exposed to all compounds for 24 h and the results are represented in Figure 3A.
(§3) In vitro cytotoxicity of investigated compounds was evaluated in two human cancer cell lines: the […] cell lines. The HepG2 cells (ATCC) were cultivated at 37 °C and 5 % CO2 in MEME medium (M2414, Sigma) supplemented with 10 % FBS, 2 mM L-Glutamine, 1 % NEAA, 2.2 g/L NaHCO3, 1 mM sodium pyruvate and 100 IU/mL penicillin/ streptomycin and MCF-7 (ATCC) were cultivated in Eagle's MEM medium (M5650, Sigma), supplemented with 10 % fetal bovine serum, 2 mM glutamine, and 100 IU/mL penicillin/streptomycin. After the exposure to the tested compounds the viability of HepG2 and MCF-7 cells was determined by MTS tetrazolium reduction assay. The cells were seeded onto 96-well microplates (Nunc, TermoFisher Scientific, Waltham, MA, USA) at densities of 8000 cells per well (HepG2) and 7000 cells per well (MCF-7) in […] growth medium and incubated overnight to attach. The next day, the growth medium was replaced by the fresh complete growth medium containing appropriate concentrations of the compounds. […] Finally, the absorbance was measured at wavelength of 490 nm using a Microplate Reader (Synergy MX, BioTek, Winooski, VT, USA). […] Assay was performed at 5 concentrations of each compound; 2, 25, 50, 100 and 200 µM for compounds 1, 7 and 14 and 1, 12.5, 25, 50, 100 µM for compounds 9 and 10. […] Cell viability was determined by comparing the OD (optical density) of the wells containing the cells treated with investigated compounds with those of solvent control cells and presented as % of cell viability ± SD. Experiments were performed three times independently each time in at least three replicates. EC50 values were calculated by non-linear regression analysis using GraphPad Prism 7.0 Software. Statistical significance between treated groups and the control was determined by One-way analysis of variance and Dunnett's Multiple Comparison Test.

[2] = target: T1, human topo IIα (Homo sapiens, UniProt P11388); test: human topo IIα cleavage assay (linear DNA); type: biochemical
T1 construct: purchased Inspiralis (Norwich, UK)
Procedure: To determine if compounds act as topo II poisons, cleavage assay was performed for compounds 1 and 9.
Selected compounds were tested at four concentrations: 3.9, 31.5, 125 and 500 µM. The reaction was then incubated for additional 30 minutes with 0.2 % SDS and 0.5 µg/µL proteinase K. Subsequently the reaction was stopped by adding 30 µL of chloroform/iso-amyl alcohol ([…]) and 30 µL of Stop Dye (40 % sucrose (w/v), 100 mM Tris.HCl (pH 7.5), 10 mM EDTA, 0.5 µg/mL bromophenol blue), before sample being loaded on the 1 % TAE gel run at 80 V for 2 hours.
Bands were visualized by the ethidium bromide staining for 15 minutes and destaining for subsequent 10 minutes. Gels were scanned using the documentation equipment (GeneGenius, Syngene, Cambridge, UK) and cleavage levels were calculated from the band data obtained by the gel scanning software (GeneTools, Syngene, Cambridge,UK). The human topo IIα cleavage assay was performed in collaboration with Inspiralis (Norwich, UK).

[3] = target: T2, human topo IIβ (Homo sapiens, UniProt Q02880); test: kDNA decatenation assay catalysed by human topo IIβ; type: biochemical; settings: for % Decatenated Assay 1 / % Decatenated Assay 2: % of decatenated kDNA; for % Decatenated Average: average of two assays
T2 construct: purchased Inspiralis (Norwich, UK)
Procedure: One U of human topo II (α or β) was incubated with 200 ng kDNA in a 30 µL reaction at 37°C for 30 minutes under the following conditions: 50 mM Tris HCl (pH 7.5), 125 mM NaCl, 10 mM MgCl2, 5 mM DTT, 0.5 mM EDTA, 0.1 mg/ml bovine serum albumin (BSA) and 1 mM ATP. Compounds 1 and 9 were serially diluted in DMSO and added to the reaction mixture before the addition of the enzyme. Etoposide was used as a control compound. Each reaction was then stopped by the addition of 30 µL chloroform/iso-amyl alcohol ([…]) and 30 µL Stop Dye (40 % sucrose (w/v), 100 mM Tris.HCl (pH 7.5), 10 mM EDTA, 0.5 µg/mL bromophenol blue), before being loaded on a 1% TAE gel run at 85 V for 90 minutes. Assays were performed at 4 concentrations of ligand: 3.9, 31.5, 125 and 500 µM. The final DMSO concentration in all reactions was 1 % (v/v).
Bands were visualized by the ethidium bromide staining for 15 minutes and destaining for subsequent 10 minutes. Gels were scanned using the documentation equipment (GeneGenius, Syngene, Cambridge, UK) and inhibition levels were calculated from band data obtained with gel scanning software (GeneTools, Syngene, Cambridge,UK). Experiment was performed in duplicates for all compounds.

[4] = system: MCF-7 cells; test: MTS cytotoxicity assay, MCF-7; type: cell-based, human; settings: Homo sapiens, interval in brackets
Description: as §1, §2, §3

[5] = HepG2, read-out: EC50 [µM] HepG2 (24h), 24h exposure
[6] = HepG2, 72h exposure, read-out: EC50 [µM] HepG2 (72h)
[7] = MCF7, read-out: EC50 [µM] MCF-7 (24h), 24h exposure
[8] = MCF7, 72h exposure, read-out: EC50 [µM] MCF-7 (72h)

T2 sequence (Q02880 whole entry): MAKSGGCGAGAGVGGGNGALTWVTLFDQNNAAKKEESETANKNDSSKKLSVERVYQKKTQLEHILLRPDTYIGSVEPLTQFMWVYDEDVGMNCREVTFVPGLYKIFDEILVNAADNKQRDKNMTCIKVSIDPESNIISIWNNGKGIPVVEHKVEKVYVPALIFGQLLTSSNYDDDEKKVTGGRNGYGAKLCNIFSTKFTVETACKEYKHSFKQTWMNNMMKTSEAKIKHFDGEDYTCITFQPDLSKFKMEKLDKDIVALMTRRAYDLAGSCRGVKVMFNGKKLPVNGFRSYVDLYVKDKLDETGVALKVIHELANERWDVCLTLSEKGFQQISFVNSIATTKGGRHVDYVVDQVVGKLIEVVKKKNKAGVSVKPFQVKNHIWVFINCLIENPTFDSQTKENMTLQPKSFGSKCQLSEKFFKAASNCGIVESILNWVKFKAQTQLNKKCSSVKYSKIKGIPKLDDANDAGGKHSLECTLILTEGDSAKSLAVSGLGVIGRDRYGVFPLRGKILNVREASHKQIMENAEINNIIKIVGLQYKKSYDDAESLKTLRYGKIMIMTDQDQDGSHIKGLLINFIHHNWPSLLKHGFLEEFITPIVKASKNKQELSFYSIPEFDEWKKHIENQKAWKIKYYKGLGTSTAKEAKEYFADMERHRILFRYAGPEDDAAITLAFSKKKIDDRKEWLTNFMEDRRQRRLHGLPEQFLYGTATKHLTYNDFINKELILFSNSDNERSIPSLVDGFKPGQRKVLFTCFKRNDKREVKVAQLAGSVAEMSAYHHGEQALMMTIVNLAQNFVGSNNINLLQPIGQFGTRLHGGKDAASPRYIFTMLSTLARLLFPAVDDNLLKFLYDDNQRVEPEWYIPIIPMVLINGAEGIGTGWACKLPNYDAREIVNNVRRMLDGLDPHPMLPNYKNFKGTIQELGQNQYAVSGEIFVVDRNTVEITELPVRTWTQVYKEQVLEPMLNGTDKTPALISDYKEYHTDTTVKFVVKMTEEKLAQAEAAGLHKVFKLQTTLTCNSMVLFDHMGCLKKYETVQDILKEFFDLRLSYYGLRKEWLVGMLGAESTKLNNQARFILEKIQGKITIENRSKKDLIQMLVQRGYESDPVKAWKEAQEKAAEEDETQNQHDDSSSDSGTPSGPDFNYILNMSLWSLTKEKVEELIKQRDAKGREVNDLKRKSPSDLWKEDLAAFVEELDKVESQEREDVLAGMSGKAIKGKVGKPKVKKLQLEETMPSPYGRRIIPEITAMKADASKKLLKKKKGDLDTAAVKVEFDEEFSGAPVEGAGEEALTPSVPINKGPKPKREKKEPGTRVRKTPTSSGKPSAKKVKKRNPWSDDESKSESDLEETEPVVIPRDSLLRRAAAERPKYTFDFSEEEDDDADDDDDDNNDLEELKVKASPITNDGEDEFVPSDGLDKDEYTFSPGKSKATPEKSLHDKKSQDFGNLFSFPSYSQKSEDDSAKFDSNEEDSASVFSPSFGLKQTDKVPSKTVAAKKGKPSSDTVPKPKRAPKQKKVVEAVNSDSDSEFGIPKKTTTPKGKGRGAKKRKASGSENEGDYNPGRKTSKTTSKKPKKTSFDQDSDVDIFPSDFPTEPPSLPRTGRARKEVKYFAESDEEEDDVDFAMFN
T1 sequence (P11388 whole entry): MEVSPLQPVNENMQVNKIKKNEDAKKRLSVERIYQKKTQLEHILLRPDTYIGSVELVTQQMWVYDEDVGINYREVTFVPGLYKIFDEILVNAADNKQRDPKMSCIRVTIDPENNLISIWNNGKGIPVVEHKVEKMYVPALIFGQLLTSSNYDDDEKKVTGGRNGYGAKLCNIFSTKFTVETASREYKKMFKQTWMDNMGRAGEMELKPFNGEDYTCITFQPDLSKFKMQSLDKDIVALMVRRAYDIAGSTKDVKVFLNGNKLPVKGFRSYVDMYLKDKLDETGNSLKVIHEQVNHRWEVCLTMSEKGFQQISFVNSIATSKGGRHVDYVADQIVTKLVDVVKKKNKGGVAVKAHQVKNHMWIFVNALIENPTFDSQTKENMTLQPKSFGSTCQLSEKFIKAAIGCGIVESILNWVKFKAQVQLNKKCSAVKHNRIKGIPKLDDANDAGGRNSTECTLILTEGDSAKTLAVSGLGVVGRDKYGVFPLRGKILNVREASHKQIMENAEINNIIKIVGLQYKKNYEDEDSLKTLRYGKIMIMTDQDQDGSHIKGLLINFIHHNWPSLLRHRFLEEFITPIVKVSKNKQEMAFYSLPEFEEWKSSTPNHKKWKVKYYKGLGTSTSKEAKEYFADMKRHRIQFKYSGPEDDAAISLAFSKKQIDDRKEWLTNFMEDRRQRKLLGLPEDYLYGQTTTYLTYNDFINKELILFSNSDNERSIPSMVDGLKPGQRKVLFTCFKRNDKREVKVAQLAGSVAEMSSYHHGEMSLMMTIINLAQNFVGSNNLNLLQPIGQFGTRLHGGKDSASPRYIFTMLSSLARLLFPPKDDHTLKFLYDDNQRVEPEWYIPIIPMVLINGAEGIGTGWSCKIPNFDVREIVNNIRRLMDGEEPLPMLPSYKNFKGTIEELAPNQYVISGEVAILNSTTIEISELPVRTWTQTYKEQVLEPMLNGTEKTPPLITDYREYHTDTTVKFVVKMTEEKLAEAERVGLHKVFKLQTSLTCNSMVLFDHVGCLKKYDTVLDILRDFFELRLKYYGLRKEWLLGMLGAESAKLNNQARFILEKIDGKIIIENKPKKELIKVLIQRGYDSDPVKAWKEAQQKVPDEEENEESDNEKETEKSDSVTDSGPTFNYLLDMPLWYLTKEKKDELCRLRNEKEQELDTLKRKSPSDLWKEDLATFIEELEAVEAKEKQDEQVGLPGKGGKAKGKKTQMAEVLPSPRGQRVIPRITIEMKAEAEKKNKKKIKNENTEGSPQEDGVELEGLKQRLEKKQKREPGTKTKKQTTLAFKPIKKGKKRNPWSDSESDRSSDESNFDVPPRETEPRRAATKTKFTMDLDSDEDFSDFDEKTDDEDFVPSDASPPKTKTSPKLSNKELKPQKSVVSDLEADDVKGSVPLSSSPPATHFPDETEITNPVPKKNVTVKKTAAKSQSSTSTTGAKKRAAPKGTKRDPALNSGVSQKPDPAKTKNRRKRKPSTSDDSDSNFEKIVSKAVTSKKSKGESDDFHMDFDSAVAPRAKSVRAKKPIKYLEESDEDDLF

Compound	EC50 [1, 5] [µM]	EC50 [1, 6] [µM]	% Linear Average ([2]; 3.9 µM) [%]	% Linear ([2]; 3.9 µM, % Linear) [%]	% Linear ([2]; 3.9 µM, first % Linear column) [%]	% Linear Average ([2]; 31.5 µM) [%]	% Linear ([2]; 31.5 µM, % Linear) [%]	% Linear ([2]; 31.5 µM, first % Linear column) [%]	% Linear Average ([2]; 125 µM) [%]	% Linear ([2]; 125 µM, % Linear) [%]	% Linear ([2]; 125 µM, first % Linear column) [%]	% Linear Average ([2]; 500 µM) [%]	% Linear ([2]; 500 µM, % Linear) [%]	% Linear ([2]; 500 µM, first % Linear column) [%]	% Decatenated Assay 1 ([3]; 3.9 µM) [%]	% Decatenated Assay 2 ([3]; 3.9 µM) [%]	% Decatenated Assay 1 ([3]; 31.5 µM) [%]	% Decatenated Assay 2 ([3]; 31.5 µM) [%]	% Decatenated Average ([3]; 31.5 µM) [%]	% Decatenated Assay 1 ([3]; 125 µM) [%]	other results
Cc1nc(N)sc1-c1csc(Nc2ccc(C(F)(F)F)cc2)n1 [Compound 1, 4'-methyl-N2-(4-(trifluoromethyl)phenyl)-[4,5'-bithiazole]-2,2'-diamine]	72.8	46.8	6.81	5.57	8.05	7.04	7.77	6.32	2.94	2.85	3.02	2.72	2.98	2.45	87.3	95.5	78.6	79.7	79.2	0	% Decatenated Average ([3]; 3.9 µM): 91.3%; inhibition at 31.5 µM ([3]; 31.5 µM): 20.8%; % of inhibition of decatenation ([3]; 125 µM): fully inhibited; % Decatenated Assay 2 ([3]; 125 µM): 0%; % Decatenated Average ([3]; 125 µM): 0%; % of inhibition of decatenation ([3]; 500 µM): fully inhibited; % Decatenated Assay 1 ([3]; 500 µM): 0%; % Decatenated Assay 2 ([3]; 500 µM): 0%; % Decatenated Average ([3]; 500 µM): 0%; EC50 [4, 7]: 65 µM; EC50 [4, 8]: 59.5 µM
CC(=O)Nc1ccc(Nc2nc(-c3sc(NC(C)=O)nc3C)cs2)cc1 [Compound 9, N-(4-((2'-acetamido-4'-methyl-[4,5'-bithiazol]-2-yl)amino)phenyl)acetamide]	73.5	23.5	6.26	7.03	5.49	7.26	6.75	7.77	4.72	4.60	4.84	2.60	2.25	2.95	87.0	75.6	80.1	73.3	76.7	30.5	% Decatenated Average ([3]; 3.9 µM): 81.3%; inhibition at 125 µM ([3]; 125 µM): 73.9%; % Decatenated Assay 2 ([3]; 125 µM): 21.7%; % Decatenated Average ([3]; 125 µM): 26.1%; inhibition at 500 µM ([3]; 500 µM): 88.6%; % Decatenated Assay 1 ([3]; 500 µM): 17.5%; % Decatenated Assay 2 ([3]; 500 µM): 5.3%; % Decatenated Average ([3]; 500 µM): 11.4%; EC50 [4, 7]: 15 µM; EC50 [4, 8]: 13.8 µM
COc1cc([C@@H]2c3cc4c(cc3[C@@H](O[C@@H]3O[C@@H]5CO[C@@H](C)O[C@H]5[C@H](O)[C@H]3O)[C@H]3COC(=O)[C@H]23)OCO4)cc(OC)c1O [Etoposide, etoposide, reference compound]	196	25.8	17.32	11.88	22.76	34.63	36.26	33.00	41.13	36.91	45.35	45.71	48.40	43.03	100.0	100.0	94.0	92.8	93.4	24.6	amount of linear DNA (poison activity) ([2]; titration 3.9, 31.5, 125 and 500 µM, result in words): increased amount of linear DNA; % Decatenated Assay 2 ([3]; 125 µM): 23.1%; % Decatenated Average ([3]; 125 µM): 23.9%; % Decatenated Assay 1 ([3]; 500 µM): 150%; % Decatenated Assay 2 ([3]; 500 µM): 14.4%; % Decatenated Average ([3]; 500 µM): 14.7%; EC50 [4, 7]: 320 µM; EC50 [4, 8]: 12.6 µM
